Patent US20160039936A1, “FIBROBLAST GROWTH FACTOR RECEPTOR INHIBITION FOR THE TREATMENT OF DISEASE” (UNIVERSITY OF MIAMI, priority 2011, published 2016)

How the values were obtained:
isolated NRVM = assay: Cross-sectional area (hypertrophy) of isolated NRVM with receptor antagonists (Example 4); assay type: cell-based, rat; conditions: for cross-sectional area of isolated NRVM: 48 h, FGF alone 25 ng/ml vs PBS
Protocol: (§1) NRVM were isolated using a standard isolation system (Worthington Biochemical Corporation) (Faul et al., 2011). Hearts from 1-2 day old Sprague Dawley rats were harvested, minced in calcium-and magnesium-free Hank's Balanced Salt Solution (HBSS), and the tissue digested with 50 μg/ml trypsin at 4° C. for 20-24 hours. Soybean trypsin inhibitor in HBSS was added, and the tissue was further digested with collagenase (in Leibovitz L-15 medium) under slow rotation (15 rpm) at 37° C. for 45 minutes. Cells were released by triturating the suspension 20 times with a standard 10 ml plastic serological pipette and filtering it twice through a cell strainer (70 μm, BD Falcon). Cells were incubated at room temperature for 20 minutes and spun at 100 g for 5 minutes. The cell pellet was resuspended in plating medium [Dulbecco's Modified Eagle Medium (DMEM; Cellgro) with 17% Media 199 (Invitrogen), 15% fetal bovine serum (FBS; Invitrogen) and 1% penicillin/streptomycin solution (P/S; Invitrogen)]. Cells were counted using a hemocytometer.
Cells were plated on glass and plastic surfaces, which were coated with laminin (Invitrogen; 10 μg/ml in PBS) at room temperature for 1 hour prior to plating. For immunofluorescence analysis, 3×10^5 cells were seeded per well on glass coverslips in 24-well plates. For Western blot or qPCR analyses of total extracts, 1×10^6 cells were seeded per well in 6-well plates, and for immunoprecipitation assays, 5×10^6 cells were seeded in 10 cm-culture dishes. Cells were left undisturbed in plating medium at 37° C. for 72 hours and then cultured in maintenance medium (DMEM with 20% Media 199, 1% insulin-transferrin-sodium selenite solution [ITS; Sigma-Aldrich] and 1% P/S) in the presence of 100 μM 5-bromo-2′-deoxyuridine (BrdU; Sigam-Aldrich). After 4 days, isolated cardiac myocytes were cultured in BrdU-containing maintenance medium in the presence of recombinant murine FGF23 or FGF2 (both at 25 ng/ml) for different time points.
Cultured cells were fixed in 2% PFA (in 5 mg/ml sucrose) for 5 minutes and permeabilized in 1% Triton X-100 (in PBS) for 10 minutes. We analyzed hypertrophic growth of isolated NRVM and NMVM on laminin-coated glass coverslips after 48 hours of treatment with growth factors. For FGFR4 expression and localization analyses, untreated NMVM from wild-type and FGFR4^−/− mice were immunolabeled. The mouse monoclonal antibody against sarcomeric α-actinin (EA-53; Sigma-Aldrich) was used at 1:1,000, and rabbit polyclonal anti-FGFR4 (C-16; Santa Cruz) at 1:50. Cy3-conjugated goat-anti mouse and Alexa488-conjugated goat-anti rabbit (Jackson Immuno Research) were used as secondary antibodies at 1:300. To visualize nuclei, fixed cells were incubated with 4′,6-diamidino-2-phenylindole (DAPI; 400 ng/ml in PBS) for 10 minutes. Immunofluorescence images were taken on a Leica TCS-SP5 confocal microscope with a 63× oil objective.
Myocyte cross-sectional area was measured based on α-actinin-positive staining using Leica AF6000 fluorescence software. To assess the signaling pathways involved in FGF23- and FGF2-mediated hypertrophy, we analyzed the morphometry of plated cells that were pre-treated with specific inhibitors for 60 minutes prior to the addition of the FGFs at 25 ng/ml (NRVMs) or at 100 ng/ml (NMVMs). The following inhibitors and concentrations were used: pan-FGFR, PD173074 (Sigma-Aldrich) at 10 nM; FGFR1-3, AZD4547 (ChemieTek) at 5 nM; and FGFR4 blocking antibody (human monoclonal, U3-11; U3Pharma) at 10 μg/ml.

[1] = system: isolated neonatal rat ventricular cardiac myocytes (NRVM); assay: Surface area (hypertrophy) of isolated NRVM, immunocytochemistry and morphometry (Examples 1-2); assay type: cell-based; conditions: for cell surface area: 48 h incubation with the FGF alone
Protocol: as §1, with “(Toraason” for “(Faul”, “Toxicology, 56(1):107-117, 1989).” for “2011).”, “rats (Charles River)” for “rats”, “calcium- and” for “calcium-and”, “added” for “added,”, “by gently” for “by”
Cells were plated on glass and plastic surfaces which were coated with laminin (Invitrogen; 10μg/ml in PBS) at room temperature for 1 hour prior to plating. For immunofluorescence analysis, 1×10^6 cells were seeded per well on glass coverslips in 6-well plates. For protein and RNA isolation, 2×10^6 cells were seeded in 6 cm-culture dishes. Cells were left undisturbed in plating medium at 37° C. for 72 hours and then cultured in maintenance medium (DMEM with 20% Media 199, 1% insulin-transferrin-sodium selenite solution (ITS; Sigma-Aldrich) and 1% P/S) in the presence of 100 μM 5-bromo-2′-deoxyuridine (BrdU; Sigam-Aldrich) to eliminate proliferating non-myocytes resulting in a relatively pure population of isolated cardiac myocytes (Bishopric et al., 1987). After 4 days, isolated cardiac myocytes were cultured in BrdU-containing maintenance medium in the presence of recombinant murine FGF23 (26.1 kDa, 251 amino acids; R&D Systems) or FGF2 (16.2 kDa, 144 amino acids; R&D Systems) for 48 hours.
We analyzed isolated NRVM on laminin-coated glass coverslips by immunocytochemsitry according to our established protocols (Faul et al., Cell Biol., 169(3):415-424, 2005; Faul et al., Cell Biol., 27(23):8215-8227, 2007). The mouse monoclonal antibody against sarcomeric α-actinin (EA-53; Sigma-Aldrich) was used at 1:1000 and Cy3-conjugated goat-anti mouse (Jackson Immuno Research) as secondary antibody at 1:750. To visualize nuclei, fixed cells were incubated with 4′,6-diamidino-2-phenylindole (DAPI; 400 ng/ml in PBS) for 5 minutes. Immunofluorescence images were taken on a Leica TCS-SP5 confocal microscope with a 63× oil objective with a 1.6× zoom. Leica AF6000 fluorescence software was used to measure the cell surface area based on α-actinin-positive staining.
To assess the signaling pathways involved in FGF23- and FGF2-mediated hypertrophy, we analyzed the morphometry of plated cells that were pre-treated with specific inhibitors for 60 minutes prior to the addition of the FGFs at varying concentrations.

| Molecule | FGF2-induced hypertrophy (cross-sectional area) with receptor antagonist (isolated NRVM; NRVM 48 h, FGF2 25 ng/ml, PD173074 10 nM, AZD4547 5 nM, anti-FGFR4 10 μg/ml) | FGF23-induced hypertrophy (cross-sectional area) with receptor antagonist (isolated NRVM; NRVM 48 h, FGF23 25 ng/ml, PD173074 10 nM, AZD4547 5 nM, anti-FGFR4 10 μg/ml) | FGF2-induced increase in cell surface area (hypertrophy) in presence of inhibitor ([1]; 48 h FGF2, inhibitor pre-treated 60 min at Table 2 concentration) | FGF23-induced increase in cell surface area (hypertrophy) in presence of inhibitor ([1]; 48 h FGF23, inhibitor pre-treated 60 min at Table 2 concentration) | cross-sectional area of isolated NRVM (isolated NRVM) | cell surface area [1] |
| --- | --- | --- | --- | --- | --- | --- |
| CCN(CC)CCCCNc1ncc2cc(-c3cc(OC)cc(OC)c3)c(NC(=O)NC(C)(C)C)nc2n1 [PD173074] | inhibited | inhibited | completely blocked | completely blocked |  |  |
| FGF23: recombinant mouse FGF23, 6His-tagged Tyr25-Val251 (Arg179Gln) (R&D Systems) (protein, left off: small tags and cut ends) YPDTSPLLGSNWGSLTHLYTATARTSYHLQIHRDGHVDGTPHQTIYSALMITSEDAGSVVITGAMTRRFLCMDLHGNIFGSLHFSPENCKFRQWTLENGYDVYLSQKHHYLVSLGRAKRIFQPGTNPPPFSQFLARRNEVPLLHFYTVRPRRHTQSAEDPPERDPLNVLKPRPRATPVPVSCSRELPSAEEGGPAASDPLGVLRRGRGDARGGAGGADRCRPFPRFV |  |  |  |  | significantly increases | significant increase |
| FGF2: recombinant mouse FGF2 (Ala11-Ser154) (R&D Systems) (protein) ALPEDGGAAFPPGHFKDPKRLYCKNGGFFLRIHPDGRVDGVREKSDPHVKLQLQAEERGVVSIKGVCANRYLAMKEDGRLLASKCVTEECFFFERLESNNYNTYRSRKYSSWYVALKRTGQYKLGSKTGPGQKAILFLPMSAKS |  |  |  |  | significantly increases | significant increase |
